System: HIV-IIIb
Assay: Test A: Antiviral Assays in MT4 Cells
Type: cell-based
Conditions: MT-4 cells infected with HIV-IIIb (0.004 m.o.i.), 5 days of incubation, CellTiter-Glo chemiluminescence readout
Outline: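 MT-4 cells pre-infected with HIV-IIIb (0.004 m.o.i.) or mock-infected, 2000 cells per well, were exposed to 10 three-fold serial compound dilutions in quadruplicate in RPMI 1640 with 10% FBS. After 5 days at 37° C, cell viability read by CellTiter-Glo chemiluminescence.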

[1] = Human immunodeficiency virus 1, IIIB, MT4, 120 h

Structure (SMILES) | EC50 [1] | EC50
Cc1cc2[nH]c(=O)ccc2c(-c2ccc3c4c(ccnc24)CCO3)c1[C@H](OC(C)(C)C)C(=O)O [Compound 97, (S)-2-tert-Butoxy-2-((R)-5-(2,3-dihydropyrano[4,3,2-de]quinolin-7-yl)-7-methyl-2-oxo-1,2-dihydroquinolin-6-yl)acetic acid] | 898 nM | 
Cc1cc2nc(-n3ccnc3)ccc2c(-c2ccc3c4c(ccnc24)CCO3)c1[C@H](OC(C)(C)C)C(=O)O [Compound 98, (S)-2-tert-butoxy-2-((R)-5-(2,3-dihydropyrano[4,3,2-de]quinolin-7-yl)-2-(1H-imidazol-1-yl)-7-methylquinolin-6-yl)acetic acid] | 251 nM | 
Cc1cc2nc(C(F)F)ccc2c(-c2ccc3c4c(ccnc24)CCO3)c1[C@H](OC(C)(C)C)C(=O)O [Compound 99, (S)-2-tert-butoxy-2-((R)-2-(difluoromethyl)-5-(2,3-dihydropyrano[4,3,2-de]quinolin-7-yl)-7-methylquinolin-6-yl)acetic acid] |  | 12 nM
Cc1cc2nc(C(F)F)ccc2c(-c2ccc(Cl)cc2)c1[C@H](OC(C)(C)C)C(=O)O [Compound 100, (S)-2-tert-butoxy-2-(5-(4-chlorophenyl)-2-(difluoromethyl)-7-methylquinolin-6-yl)acetic acid] | 75 nM | 
Cc1cc2c(ccc(=O)n2CCNC(=O)OCC2c3ccccc3-c3ccccc32)c(-c2ccc(Cl)cc2)c1[C@H](OC(C)(C)C)C(=O)O [Compound 101, (S)-2-(1-(2-(((9H-Fluoren-9-yl)methoxy)carbonylamino)ethyl)-5-(4-chlorophenyl)-7-methyl-2-oxo-1,2-dihydroquinolin-6-yl)-2-tert-butoxyacetic acid] | 367 nM | 
Cc1ccc2c(-c3ccc4c5c3CCCN5CCO4)c([C@H](OC(C)(C)C)C(=O)O)c(C)cc2n1 [Compound 103, (2S)-2-tert-butoxy-2-(2,7-dimethyl-5-(3,5,6,7-tetrahydro-2H-[1,4]oxazino[2,3,4-ij]quinolin-8-yl)quinolin-6-yl)acetic acid] | 25 nM | 
Cc1ccc2c(-c3ccc(Cl)cc3Cl)c([C@H](OC(C)(C)C)C(=O)O)c(C)cc2n1 [Compound 104] |  | 720 nM
Cc1cccnc1-c1ccc2c(-c3ccc4c5c(ccnc35)CCO4)c([C@H](OC(C)(C)C)C(=O)O)c(C)cc2n1 [Compound 106, (S)-2-tert-Butoxy-2-((R)-5-(2,3-dihydropyrano[4,3,2-de]quinolin-7-yl)-7-methyl-2-(3-methylpyridin-2-yl)quinolin-6-yl)acetic acid] |  | 25 nM
CC(=O)c1ccc2c(-c3ccc4c5c(ccnc35)CCO4)c([C@H](OC(C)(C)C)C(=O)O)c(C)cc2n1 [Compound 111, (S)-2-((R)-2-Acetyl-5-(2,3-dihydropyrano[4,3,2-de]quinolin-7-yl)-7-methylquinolin-6-yl)-2-tert-butoxyacetic acid] | 352 nM | 
